# Test results as given in patent publication US7871765B2, “Composition having antitumor effect” (priority 2004, dated 2011).
# How the values were obtained:
# MB49 cells [1] = assay: MB49 cell-inoculated mouse model (intradermal), tumor volume; format: in vivo
# Text: This experimental model can be prepared in accordance with, for example, a method described in Anticancer Res., 2004, 24(4):2225-30, and the like.
# [2] = system: MB49 (transitional epithelial cancer) cells; assay: Adriamycin sensitivity of MB49 cells, WST-8 assay; format: cell-based; conditions: 48 hours
# Protocol: After 48 hours of cultivation, the supernatant was removed by WST-8 assay, 100 μl of a cell counting kit solution, previously diluted 10 fold with RPMI medium, was added, and the plate was allowed to stand at 37° C. for 1.5 hours. Absorbance at 450 nm was determined using a microplate reader. Assuming the absorbance of a sample of MB49 cells only to be 100% survival rate, the survival rates at various concentrations were calculated.
# MB49 cells [3] = assay: Concurrent administration of MB49 cells, HVJ-E and ADM into the bladder; format: in vivo, mouse; conditions: two weeks
# Protocol: Three 6-week-old female C57BL/6Cr Slc mice per group were anesthetized by administering a mixture of 90 μl of ketamine (50 mg) and 10 μl of xylazine (2% solution) to the left femoral muscle, a 24G catheter was inserted into the bladder, 100 μl of each of the following sample solutions was administered using a 1-ml syringe, and the catheter was indwelled for 1 hour.
# The groups established are as follows:
# The number of MB49 cells administered was 5×10^6 cells. After adjustment to a final volume of 100 μl, each solution was administered into the bladder. Two weeks later, the bladder was extirpated, and sections were prepared and stained with HE.
# [4] = system: CT-26 mouse colon cancer cells; assay: Antitumor effect of cisplatin (CDDP) and HVJ-E in combination, CT-26 tumors; format: in vivo; conditions: HVJ-E alone, CDDP 1 mg/kg, physiological saline
# Protocol: CT-26 mouse colon cancer cells were intradermally inoculated into the backs of BALB/c mice at 5×10^6 cells/head. Five days after the inoculation, treatment with HVJ-E and CDDP was started in the following animal groups. For each animal group, tumor volume was calculated as major diameter×minor diameter×minor diameter/2.
# • #1: Physiological saline group • #2: HVJ-E alone • #3: CDDP 1 mg/kg • #4: CDDP 3 mg/kg • #5: CDDP 1 mg/kg+HVJ-E (5,000 HAU) • #6: CDDP 3 mg/kg+HVJ-E (5,000 HAU) • (n=5 or 6 for each group) (Results)
# CT-26 tumor tissue = assay: HE and CD-4/CD-8 immunohistological staining of tumor tissue; format: in vivo, mouse; conditions: 9 days after CDDP administration; single dosing
# Text: (Study 5) To evaluate the infiltration of CD-4, CD-8, neutrophils, macrophage and the like in the tumor tissues examined in the study of the antitumor effect of the antitumor immunity, the following test groups were established, and tumor tissues were extirpated 9 days after administration of CDDP and subjected to immunohistological staining.
# 2-9) The tumor tissue was frozen in liquid nitrogen in preparation for staining the tumor tissue. The tumor tissue was cut into sections 8 μm in thickness using a cryostat. The tissue sections were fixed in −20° C. cold acetone for 15 minutes. After the sections were washed with water, endogenous avidin-biotin blocking was performed, and the sections were washed with water. The sample was reacted with normal rabbit serum and 50-fold diluted primary antibody [anti-mouse CD8a rat antibody (Ly-Z; Pharmingen) or anti-mouse CD4a rat antibody (L3T4; Pharmingen)] at 4° C. overnight. After the sample was washed with 7.5 mM Tris buffer solution (pH 7.5), it was reacted with 300-fold diluted anti-rat biotin-labeled rabbit Ig (DAKO) for 30 minutes. After the sample was washed with 9.5 mM Tris buffer solution (pH 7.5), it was reacted with 100-fold diluted streptoavidin for 30 minutes. After the sample was washed with 11.5 mM Tris buffer solution (pH 7.5), a color was developed with Fast Red. […]
# CT-26 cells = assay: CTL assay using radiolabeled chromium with splenocytes of treated mice; format: cell-based, mouse; conditions: E/T ratio 80; CT-26 inoculated mice; HVJ-E/BLM 3 dosing where given
# Protocol: To determine whether or not the antitumor immunity effect observed in the previous study was due to the induction of CT26 cell-specific antitumor immunity, splenocytes recovered from animals were stimulated with CT26 cells, and a CTL assay using radiolabeled chromium was performed to determine whether or not CT26-specific antitumor immunity had been induced.
# In this study, (1) a CT-26 cell non-inoculation group, (2) a CT-26 cell-alone inoculation group, (3) a CT-26 cell inoculation+CDDP administration group, and (4) a CT-26 cell inoculation+CDDP+HVJ-E/BLM 3 dosing group were established and tested.
# The spleen was extirpated from each anesthetized animal and recovered in a Petri dish (6 cm in diameter) containing 3 ml of RPMI solution. The spleen tissue was squashed between the frosted portions of two sterile glass slides, splenocytes were separated from the coat to the maximum possible extent, and the debris was removed through meshes. After 7 ml of PRMI solution was added, the cells were centrifuged at 1200 rpm for 10 minutes, and the supernatant was removed. […] The cells obtained from this operation were counted. […]
# Actual CTL assay was performed with the ratio of effector cells (E) and target cells (T), E/T ratio, set at 80, […] 40, 20, 10, and 5. In this operation, 100 μl of target cells (1×10^5 cells/ml) were added to make a total quantity of 200 μl. […]
# [5] = system: CT-26 cells derived from mouse colon cancer; assay: Antitumor effect on transplanted CT-26 tumors in cancer-bearing mice (tumor volume, remission); format: in vivo; conditions: Study 1, 21 days after treatment, single dose; for mean tumor volume: mean of five animals, BLM 6.5 μg/tumor intratumoral, CDDP 0.2 mg/body i.p.
# Protocol: CT-26 cells derived from mouse colon cancer (5×10^6 cells) were intradermally transplanted to the backs of 8-week-old male BALB/cAnNCrj mice to yield cancer-bearing mice. Five days after the transplantation, 0.2 mg/body Platocin Injection (cisplatin, CDDP) was intraperitoneally administered to animals wherein the tumor diameter (major diameter) had reached about 5 mm. Following this administration, HVJ-E containing or not containing an anticancer drug (bleomycin hydrochloride [BLM]: Nippon Kayaku Co., Ltd.) and the like were administered into the tumor in a single dose (on the day after administration of cisplatin) or in multiple doses (3 times: 1, 5, and 8 days after administration of cisplatin). Tumor diameters, survival curves, and immune reactions in the tumor tissue were evaluated.
# (Study 1) The groups described below were established, and the antitumor effects of treatment for transplanted tumors was evaluated.
# For modeling, (1) a control group, (2) an HVJ-E group, (3) a BLM-alone group, (4) an HVJ-E/BLM group, (5) a CDDP-alone group, and (6) a CDDP HVJ-E/BLM single dosing group were established; tumor volumes were measured 21 days after each treatment, and the influence on the antitumor effect was examined.
# (Study 2) In an attempt to further enhance the antitumor effect of the (single) treatment by single dosing of CDDP HVJ-E/BLM given in Study 1, HVJ-E/BLM was administered in multiple doses (3 times) (Study 2-1). […] (Study 2-1)
# Tumor volumes were examined 21 days after treatment for (1) a control group, (2) a CDDP HVJ-E/BLM single dosing group (single treatment), and (3) a CDDP HVJ-E/BLM 3 dosing group.
# After completion of the quarantine and habituation, animals were shaven with clippers. The tumor cell suspension at 100 μL/site (5×10^6 cells/body) was administered intradermally to the backs of 59 mice using a disposable syringe and injection needle (26 G). On the day following the administration, the same administration was performed on 57 animals (non-recipient animals).
# Tumor diameters (major diameter, minor diameter) were measured 5 days after transplantation (not measured after grouping). Five days later, animals having a tumor diameter (major diameter) of about 5 mm were grouped by stratified randomization to obtain a nearly uniform distribution of mean tumor diameters (major diameters).
# For the CDDP administration group, a single-dose intraperitoneal administration (1000 μl) was performed using a disposable injection syringe and injection needle. […]
# The day of administration was taken as Day 0 after administration. On Days 3, 6, 9, 12, 15, 18, and 21 after administration, all animals had their tumor diameters measured, and tumor volume (major diameter×minor diameter×minor diameter÷2) was calculated.
molecule,measurement,setting,value
"COc1cccc2c1C(=O)c1c(O)c3c(c(O)c1C2=O)C[C@@](O)(C(=O)CO)C[C@@H]3O[C@H]1C[C@H](N)[C@H](O)[C@H](C)O1 [ADM, adriamycin]",tumor suppressing effect,MB49 cells [1]; ADM alone (20 or 100 μg),a tumor suppressing effect was observed
same,tumor eradication,"MB49 cells [1]; ADM alone (20 or 100 μg), tumor diameter 7-8 mm",eradication was not observed
same,tumor volume,"MB49 cells [1]; G2: ADM 20 μg x3 into tumor, Day 0",128.4 mm^3
same,tumor volume,"MB49 cells [1]; G2: ADM 20 μg x3 into tumor, Day 5",303.2 mm^3
same,tumor volume,"MB49 cells [1]; G2: ADM 20 μg x3 into tumor, Day 7",330 mm^3
same,tumor volume,"MB49 cells [1]; G2: ADM 20 μg x3 into tumor, Day 9",324.9 mm^3
same,tumor volume,"MB49 cells [1]; G2: ADM 20 μg x3 into tumor, Day 12",331.74 mm^3
same,tumor volume,"MB49 cells [1]; G2: ADM 20 μg x3 into tumor, Day 15",443.36 mm^3
same,tumor volume,"MB49 cells [1]; G2: ADM 20 μg x3 into tumor, Day 19",773.88 mm^3
same,tumor volume,"MB49 cells [1]; G2: ADM 20 μg x3 into tumor, Day 21",1022.48 mm^3
same,tumor volume,"MB49 cells [1]; G3: ADM 100 μg x3 into tumor, Day 0",119 mm^3
same,tumor volume,"MB49 cells [1]; G3: ADM 100 μg x3 into tumor, Day 5",285.8 mm^3
same,tumor volume,"MB49 cells [1]; G3: ADM 100 μg x3 into tumor, Day 7",291.2 mm^3
same,tumor volume,"MB49 cells [1]; G3: ADM 100 μg x3 into tumor, Day 9",333.9 mm^3
same,tumor volume,"MB49 cells [1]; G3: ADM 100 μg x3 into tumor, Day 12",426.88 mm^3
same,tumor volume,"MB49 cells [1]; G3: ADM 100 μg x3 into tumor, Day 15",450.76 mm^3
same,tumor volume,"MB49 cells [1]; G3: ADM 100 μg x3 into tumor, Day 19",989.52 mm^3
same,tumor volume,"MB49 cells [1]; G3: ADM 100 μg x3 into tumor, Day 21",1220.44 mm^3
same,survival rate,[2]; ADM 0.004 μg/ml,60.1%
same,survival rate,[2]; ADM 0.008 μg/ml,54%
same,survival rate,[2]; ADM 0.063 μg/ml,34.9%
same,survival rate,[2]; ADM 0.125 μg/ml,27.6%
same,survival rate,[2]; ADM 0.25 μg/ml,22.6%
same,survival rate,[2]; ADM 0.5 μg/ml,17.2%
same,survival rate,[2]; ADM 1 μg/ml,11.7%
same,survival rate,[2]; ADM 2 μg/ml,6.7%
same,LD50 concentration,"[2]; MB49 cells, WST-8",0.008 µg/mL
same,LD90 concentration,"[2]; MB49 cells, WST-8",1 µg/mL
same,infiltration of MB49 cells into the bladder,"MB49 cells [3]; ADM 0.008 μg/ml, with or without HVJ-E 5000 HAU (Groups 1, 2)",all animals showed evidence of infiltration of MB49 cells
same,animals in which infiltration of MB49 cells could not be prevented,MB49 cells [3]; Group 3: ADM 1 μg/ml,80%
"[NH2][Pt]([NH2])([Cl])[Cl] [CDDP, cisplatin]",order of regression effect,[4]; cell-derived HVJ-E study,"greater in the order of the physiological saline group, HVJ-E-alone administration group, and CDDP 1 mg/kg administration group"
same,tumor volume compared among groups,[4]; egg-derived HVJ-E study,no major difference was observed
same,pathological findings in tumor tissue (HE staining),CT-26 tumor tissue,tumor cell necrotic signs were observed over a wide range of the tumor tissue
same,% specific Cr release,CT-26 cells,12.9%
same,mean tumor volume,[5],387 mm^3
same,mean tumor volume relative to control group as 100%,[5],23.2%
bleomycin hydrochloride [BLM],pathological findings in tumor tissue (HE staining),CT-26 tumor tissue,Generally similar findings
same,mean tumor volume,[5],1303 mm^3
same,mean tumor volume relative to control group as 100%,[5],80.0%
